This note sets out measurements from US5563292A, “Lipoxygenase inhibitors” (Schering Corporation, priority 1990, dated 1996).

Read-outs that look alike come from different tables or passages of the source.

In one test the target is T1, 5-Lipoxygenase (5-LO) (Homo sapiens, UniProt P09917).
T1 construct: Human polymorphonuclear leukocytes (neutrophils) were obtained from normal healthy volunteers by venipuncture; endogenous in cells; host or cells: human peripheral blood neutrophils (polymorphonuclear leukocytes) from healthy volunteers, intact cells
T1 sequence (P09917 1-674): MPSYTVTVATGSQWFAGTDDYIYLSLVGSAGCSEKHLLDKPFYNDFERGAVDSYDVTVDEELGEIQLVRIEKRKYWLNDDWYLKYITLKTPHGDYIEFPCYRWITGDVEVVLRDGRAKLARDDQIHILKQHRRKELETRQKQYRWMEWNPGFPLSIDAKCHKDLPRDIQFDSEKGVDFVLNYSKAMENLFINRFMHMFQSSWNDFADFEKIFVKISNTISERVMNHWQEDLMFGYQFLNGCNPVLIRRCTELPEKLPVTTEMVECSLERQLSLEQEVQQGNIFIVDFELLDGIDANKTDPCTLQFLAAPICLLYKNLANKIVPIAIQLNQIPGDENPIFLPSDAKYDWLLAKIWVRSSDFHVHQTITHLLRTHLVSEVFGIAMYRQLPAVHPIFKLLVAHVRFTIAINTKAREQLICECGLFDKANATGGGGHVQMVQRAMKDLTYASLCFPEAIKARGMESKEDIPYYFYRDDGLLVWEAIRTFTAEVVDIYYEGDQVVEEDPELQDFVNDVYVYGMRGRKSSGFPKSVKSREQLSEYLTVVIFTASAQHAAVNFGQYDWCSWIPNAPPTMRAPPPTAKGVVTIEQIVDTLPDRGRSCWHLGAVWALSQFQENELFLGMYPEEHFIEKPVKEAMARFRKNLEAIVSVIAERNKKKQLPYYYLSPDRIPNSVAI
Briefly: 5-Lipoxygenase Assay with Human Neutrophils (A23187-stimulated 5-HETE and LTB4 production). The class given is cell-based. The note with it: [14C] arachidonic acid 9 μM, A23187 1 μM. On the procedure:
5-Lipoxygenase Assay with Human Neutrophils
Human polymorphonuclear leukocytes (neutrophils) were obtained from normal healthy volunteers by venipuncture and collected with heparin anticoagulant. Neutrophils were isolated by Dextran/Ficol sedimentation as described (Billah et al., J. Biol. Chem. 260, 6899-6906 (1985)). In brief, 30 ml of blood was mixed with 5 ml of dextran (Sigma) solution and kept at 37 C for 30 min. The upper white cell-rich layer was removed and 10 ml was layered on 9 ml of Ficol-Pague solution (Pharmacia) and centrifuged at 280×g for 10 min. at 5° C. The supernatant was removed and the neutrophil pellet was resuspended in HEPES buffer containing 25 mM N-2-hydroxyethylpiperazine-N^1 -2-ethanesulfonic acid (HEPES), 125 mM NaCl, 2.5 mM KCl, 0.7 mM MgCl2, […] 10 mM glucose at pH 7.4. The red cells in the suspension were lysed by hypotonic shock. The neutrophils were washed by centrifugation in HEPES buffer two times and finally resuspended at a concentration of 20×10^6 cells/ml in the presence of 1 mM CaCl2.
Neutrophils (0.2 ml of suspension) were preincubated with dimethylsulfonxide (DMSO) vehicle with or without test compound (1 μl) for 4 minutes then incubated for 5 minutes with [^14 C] arachidonic acid (Amersham, 59 Ci/mole) at a 9 μM final concentration, and the calcium ionophore A23187 (Calbiochem) at a 1 μM final concentration. These stimulants were added in 10 μl of water:ethanol (9:1). The reaction was stopped by addition of methanol (0.4 ml), and cellular debris was removed by centrifugation. Aliquots (100 ul) of the incubations were run on a Waters two pump HPLC system fitted with a DuPont Zorbax ODS, 5μ, […] Reliance Cartridge column and C18 "Guard Pak". The column was initially eluted at 2 ml/min with 80% of the mixture water:methanol:acetic acid (46:54:0.08) containing 1 mM EDTA adjusted to pH 6.0 with ammonium hydroxide (Pump A) and 20% methanol (Pump B). At 10 minutes, a linear gradient to reach 100% methanol (Pump B) at 27 minutes was established. Between 27 and 28 minutes, methanol was exchanged for the initial eluting solvent and by 35 minutes the column had been reequilibrated for the next sample. The effluent was analyzed by a continuous flow radioactivity monitor (model ROMONA-D) interfaced with a Hewlett Packard Lab Automation System for quantitation of radioactive products. These were predominantly leukotriene B4 (LTB4) which eluted at 7 minutes, and 5-hydroxyeicosatetraenoic acid (5-HETE) which eluted at 20 minutes.

For another test, the system named is mouse ear. Briefly: Arachidonic Acid Mouse Ear Test. The test is classed as in vivo. The settings on record: topical, 30 minutes prior to arachidonic acid, biopsy 1 hour after challenge. On the procedure: Charles River, female, CD, (SD) BR mice, 6 weeks old, are caged 8/group and allowed to acclimate 1-3 weeks prior to use.
Arachidonic acid (AA) is dissolved in reagent grade acetone (2 mg/0.01 ml) and stored at -20° C. for a maximum of 1 week prior to use. Inflammatory reactions are induced by applying 10 μl of AA to both surfaces of one ear ([…] total).
Test drugs are dissolved in either reagent grade acetone or aqueous ethanol (only if insoluble in acetone) at the same doses selected by Opas et al., Fed. Proc. 43, Abstract 2983, p. 1927 (1984) and Young et al., J. Invest. Dermatol. 82, pp. 367-371 (1984). These doses are employed to ensure maximum responses and to overcome any difference in topical absorption which could occur with any drug applied in an aqueous ethanol vehicle. The test drug is applied 30 minutes prior to challenge with AA.
The severity of the inflammation is measured as a function of increased ear weight. A 6 mm punch biopsy is removed 1 hour after AA challenge and weighed to the nearest 0.1 mg. Mean±standard error and all possible comparisons are made via Duncan's Multiple Range Statistic.

The mark [1] stands for this setting: read-out: 5-LO inhibition, % inhibition 5-HETE.
Setting [2] is: read-out: 5-LO inhibition, % inhibition LTB4.

The term inhibition denotes the share of the control response that was lost under treatment. As to `COc1cc(OC)cc(C(C)(C)CC(C)(CCCC=O)c2cc(OC)cc(OC)c2)c1` (stereo not drawn) [Formula 43], the inhibition at 15 µM on 5-Lipoxygenase (5-LO) (setting [1]) and on 5-Lipoxygenase (5-LO) (setting [2]) was 97% each time.
Take `COc1cc(OC)cc(C(C)(C)CC(C)(CCCC(=O)O)c2cc(OC)cc(OC)c2)c1` (stereo not drawn) [Formula 45]: the values for the inhibition at 15 µM at 5-Lipoxygenase (5-LO) (setting [1]) and on 5-Lipoxygenase (5-LO) (setting [2]) were 33% and 14%, respectively.
With `COc1cc(OC)cc(C(C)(C)CC(C)(CCCCO)c2cc(OC)cc(OC)c2)c1` (stereo not drawn) [Formula 41, 5,7-dimethyl-5,7-bis(3,5-dimethoxyphenyl)-1-octanol], the inhibition at 15 µM turned out to be 99% on 5-Lipoxygenase (5-LO) (setting [1]) and 97% on 5-Lipoxygenase (5-LO) (setting [2]). Moreover, the “Mouse ear assay, % inhibition (ear weight)” value in the test with mouse ear (dose 1.0 mg/ear) was 72%.
`COc1cc(OC)cc(C(C)(C)CC(C)(CCCC(=O)NO)c2cc(OC)cc(OC)c2)c1` (stereo not drawn) [Formula 46] came in with an inhibition at 5 µM on 5-Lipoxygenase (5-LO) (dose 5 μM) of 63%. The inhibition at 15 µM was 99% on 5-Lipoxygenase (5-LO) (setting [1]) and 96% on 5-Lipoxygenase (5-LO) (setting [2]).
Regarding `COC(=O)CCCC(C)(CC(C)(C)c1cc(OC)cc(OC)c1)c1cc(OC)cc(OC)c1` (stereo not drawn) [Formula 44], the inhibition at 15 µM at 5-Lipoxygenase (5-LO) (setting [1]) was 98%; on 5-Lipoxygenase (5-LO) (setting [2]), 100%.
For the compound `COc1cc(OC)cc(C(C)(C)CC(C)(CCCCOC(C)=O)c2cc(OC)cc(OC)c2)c1` (stereo not drawn) [Formula 42], the inhibition at 15 µM on 5-Lipoxygenase (5-LO) (setting [1]) came out at 95%; at 5-Lipoxygenase (5-LO) (setting [2]) it was 100%. In addition, the “Mouse ear assay, % inhibition (ear weight)” value with mouse ear (dose 0.5 mg/ear) was found to be 40%.
